Experimental data published in patent US8754052B2, “Treatment of nephrolithiasis and urolithiasis using 1,2,3,4,6-penta-O-galloyl-beta-D-glucose (PGG)” (Mayo Foundation for Medical Education and Research, priority 2008, dated 2014).

Legend:
MDCK I cells [1] = assay: Cytotoxicity assay (MTT colorimetric assay); type: cell-based, Canine
Experimental: (§1) Renal epithelial cells were of the Madin-Darby Canine kidney (MDCK) line, type I, derived from the distal nephron. Cells were grown in DMEM containing 25 mmol/L glucose at 37° C. in a humidified atmosphere containing […] CO2. To prepare high-density, quiescent cultures at 1×10^6 cells/35-mm plastic plate (9.62 cm^2; Nunc, Naperville, Ill., USA) were performed in DMEM containing 10% fetal bovine serum. Two days later when the cells were confluent, the established monolayer was used in the examples that follow.
The effect of PGG on cytotoxicity against MDCK 1 cells was evaluated using a MTT (3-(4,5-dimethylthiazol-2-yl)-2,5-diphenyltetrazolium bromide) colorimetric assay. PGG was dissolved with dimethylsulfoxide (DMSO). The cells were seeded onto 96-well microplates at a density of 1×10^4 cells per well in 100 μL of DMEM containing 10% fetal bovine serum. […] Cells were incubated at 37° C. for 1 h and the optical density was measured using a microplate reader (Molecular Devices Co.) set at 570 nm. Cell viability was calculated as the percentage of viable cells in the PGG treated group versus those in the untreated control group using the following equation: cell viability (%)=[OD (PGG)−OD (Blank)/OD (Control)−OD (Blank)]×100.

MDCK I cells [2] = assay: Wound healing assay (migration after scrape wounding); type: cell-based, Canine; conditions: Canis lupus familiaris, 24 h, FIG. 3, read-out: inhibiting wound healing (migration after scrape wounding)
Experimental: as §1
MDCK I cells were seeded in a 35-mm plastic plate to confluent status overnight and incubated with serum-free medium for 6 h. A plastic pipette tip (200 μl size) was used to scrape a line between the MDCK1 cells that was approximately 2 to 3 mm wide across the entire culture dish. The medium was replaced by serum-free medium including various concentrations (1, 5 and 10 μM) of PGG. After incubation at 37° C. for 24 h, each plate was photographed (100×) and quantified.

MDCK I cells [3] = assay: [14C]COM crystal binding assay; type: cell-based, Canine
Experimental: Calcium oxalate monohydrate (COM) crystals were prepared from supersaturated solutions. To prepare radioactive COM crystals, [^14C]oxalic acid (30-60 mCi/mmol; ICN Biomedicals, Irivine, Calif., USA) was added to a sodium oxalate solution, producing a specific activity of 10^5 cpm/mL, and sufficient calcium chloride was then added to form a supersaturated solution. […] Dulbecco-Vogt modified Eagle's essential medium (DMEM; GIBCO, Life Technologies Inc., NY), antibiotic-antimycotics were purchased from GIBCO (Grand island, NY). Fetal bovine serum (FBS) was from JRH (Lenexa, Kans.). HEPES (N-[2-hydroxyethyl]piperazine-N′-[2-ethanesulfonic acid]), sodium bicarbonate, MTT (3-(4,5-dimethylthiazol-2-yl)-2,5-diphenyltetrazolium bromide, BSA (bovine serum albumin were obtained from Sigma Chemical Co. (St. Louis, Mo.).
as §1
MDCK I cells were treated with various concentrations (1, 5 and 10 μM) of PGG for 15 min or 24 h with and without wound damage and washed with phosphate-buffered saline (PBS, pH 7.4). Then [^14C] calcium oxalate monohydrate (COM) crystals were added to MDCK 1 cells, until a final concentration of 200 μg/mL (41.6 μg/cm^2 of cells) was achieved. The culture dishes were gently agitated for 5 seconds to uniformly distribute the crystals so that they settled to the surface of the cell monolayer under the force of gravity. After 2 min, the buffer was aspirated and the cells were washed 3 times with PBS. The cells and adherent crystals were then liquefied in 1 mL of 10% NaOH for 1 h and transferred to a scintillation vial containing 4.5 mL of Ecoscient (National Diagnostics, E. Palmetto, Fla., USA). The amount of radioactivity was measured, as described previously (See Riese, R. J. et al. Am J. Physiol (1992) 262: F177-84). Similarly, to precoat the [^14C]COM crystals with PGG, 0.4 mg [^14C]COM crystals were placed in a 5-mL tube containing 2 mL of a solution containing various concentrations (1, 5 and 10 μM) of PGG diluted in PBS. The crystals were incubated under end-over-end rotation for 15 min at room temperature, pelleted by centrifugation at 2,000 r.p.m. for 5 min, washed with PBS and then resuspended in 2 mL PBS. Two minutes later, the crystal binding activity was measured as described above.

hyaluronan = assay: Hyaluronan expression by confocal microscopy and Western blot; type: cell-based, Canine
Experimental: A middle line was scraped in the confluent MDCK 1 cells grown on coverslips using a 200 μL plastic pipette tip. The MDCK I cells on coverslips were then exposed to various concentrations (1, 5 and 10 μM) of PGG for 15 minutes or 24 hours at 37° C. The coverslips were rinsed three times with PBS, and fixed using 3.7% formaldehyde in PBS for 15 min. Cells were then rinsed three times with PBS and incubated with 1% goat serum for 1 h to block nonspecific binding sites. The goat serum was aspirated and the cells were incubated for 1 hour in a humidified chamber at 37° C. with biotinylated HABP. The cells were then washed with PBS (10 min×3) and then incubated 1 h with an avidin-conjugated Texas red (Molecular Probes, Eugene, Oreg.) in a humidified chamber at 37° C. Cells were again washed with PBS (10 min×3), and the coverslips were mounted onto glass slides using Slow-Fade (Molecular Probes, Eugene, Oreg.). The XZ section was scanned using a LSM 510 confocal microscope (Carl Zeiss, Oberkochen, Germany) equipped with an Axiovert 100M microscope and a c-Apochromat 63/1.2 numerical aperture water-immersion lens. Texas red was excited at 568-nm of an argon-krypton laser and the Emission for Texas red was collected at >585 nm.
For Western blotting, MDCK-I cells with or without scrape-wounding 24 hours earlier were harvested and washed with cold PBS; PGG (1, 5, 10 μM) was added to the medium 15 min or 24 hours prior to harvest. Cells were incubated in lysis buffer (50 mM Tris-HCl (pH 7.4), 150 mM NaCl, 1% Triton X-100, 0.1% SDS and 1 mM EDTA) supplemented with protease inhibitors ([…] and 1 mM of 4-(2-aminoethyl) benzenesulfonyl fluoride) and phosphatase inhibitors (1 mM NaF and 1 mM Na3VO4) for 20 min on ice. Lysates were centrifuged at 14,000 g for 20 min at 4° C. Lysates containing […] of protein were fractionated by SDS-PAGE and electrotransferred to a Hybond ECL transfer membrane (Amersham Pharmacia, Arlington Heights, Ill.). The blocked membranes were then incubated with primary antibodies (1:200 dilution) of HABP. […]

[4] = Toxicology study in mice orally fed with PGG; type: in vivo, ICR mice; conditions: oral 10, 20 and 40 mg/kg
Experimental: To examine the optimal dose for animal study, a toxicology study was performed in mice orally fed with PGG (10, 20, and 40 mg/kg). Each group consisted of five ICR mice.

[5] = system: hyperoxaluric wild type rats; assay: Ethylene glycol/ammonium chloride induced nephrolithiasis in hyperoxaluric rats; type: in vivo, Harlan Sprague Dawley Rats; conditions: for Serum BUN (mean ± SD) / Serum Calcium (mean ± SD) / Serum Creatinine (mean ± SD) / Serum Phosphate (mean ± SD) / Serum Uric acid (mean ± SD): rat serum; for Urine Calcium / Urine Mean Vol ± SD / Urine Mean pH ± SD: rat urine; for Survival (%): rats
Experimental: Rats were administered PGG, with and without ethylene glycol given to render the rats hyperoxaluric. The effect of PGG on renal crystal deposition was assessed, to confirm the ability of PGG to prevent crystal deposition. Urine of animals was collected and extensively studied to quantitate biochemical and functional changes, and determine the mechanism of the apparent salutary effects, in several studies outlined in Table 1. Functional effects of treated rat urine on crystal nucleation, growth, aggregation and cell interaction was also tested, and compared to urine from control animals.
Six rats per group were treated (see Table 1 below). Harlan Sprague Dawley Rats (300 g) received 0.8% ethylene glycol and 1% ammonium chloride mixed with the drinking water to induce nephrolithiasis, PGG in 2 different doses (4 mg/kg and 20 mg/kg), or both for a full 4 weeks. The doses of PGG covered the range deemed effective in mouse experiments on angiogenesis over a 2-log range factored for relative body size. PGG was administered to all rats via […]. Urine was collected for chemistries and crystalluria quantification at weekly intervals, with full urinary inhibition studies at 3 weeks, and histologic evaluation after week 3. Kidneys were examined quantitatively for the presence of cortical and medullary crystals, as well as interstitial fibrosis, by a blinded observer. Crystal deposition within cortex and medulla were also quantified under polarizing microscopy using Metamorph software.
Twenty four-hour rat urine samples were collected in a metabolic cage with sodium azide as a preservative. Urine was centrifuged, the pellet resuspended, and crystal size and quantity assessed in a hemocytometer.
Spot urine or 24-hr urine samples from individual rats under study were assayed before and after hyperoxaluric treatment. Spot urine samples were collected directly into Eppendorf tubes, centrifuged at 5,000×g for 5 min to dispose of cell debris, and stored at −80° C. until use. Urinary concentrations of oxalate, calcium and other determinants of SS were measured. SS was calculated using the EQUIL2 program.
Urine chemistry and enzymes were evaluated to measure urine pH, […] clearance, the presence and concentration of oxalate, calcium, citrate, and 8-Hydroxy-2′-deoxyguanosine (8-OH-dG). 8-OH-dG has been regarded as a potential marker of oxidative DNA damage induced by ROS. Urinary 8-OHdG was measured using a commercially available competitive 8-OHdG enzyme-linked immunosorbent assay kit. The number of oxalate crystal deposits in the kidneys was measured using a hematoxylin and eosin stain. Reverse transcriptase PCR (RT-PCR) was used to detect and quantify superoxide dismutase (SOD) mRNA and osteopontin mRNA. Immunohistochemical staining techniques were used to measure SOD and osteopontin protein expression […]. Blood chemistry was also studied to measure levels of creatinine, uric acid, phosphate, blood urea nitrogen (BUN), and malondialdehyde (MDA) in the subjects.

O=C(OC[C@H]1O[C@@H](OC(=O)c2cc(O)c(O)c(O)c2)[C@H](OC(=O)c2cc(O)c(O)c(O)c2)[C@@H](OC(=O)c2cc(O)c(O)c(O)c2)[C@@H]1OC(=O)c1cc(O)c(O)c(O)c1)c1cc(O)c(O)c(O)c1 [PGG, 1,2,3,4,6-penta-O-galloyl-beta-D-glucose]
cytotoxicity against MDCK I cells (MDCK I cells [1]; concentrations up to 25 uM, 24 h, FIG. 1): did not exert any significant cytotoxicity | cytotoxicity on MDCK I cells (FIG. 1 legend) (MDCK I cells [1]; except at high concentrations): lack of cytotoxicity | inhibition at 1 µM (MDCK I cells [2]; 1 μM PGG): 2% | inhibition at 5 µM (MDCK I cells [2]; 5 μM PGG): 26% | inhibition at 10 µM (MDCK I cells [2]; 10 μM PGG): 49% | COM crystal adhesion to MDCK I cells (MDCK I cells [3]; PGG added to the buffer, concentration-dependent, FIG. 4A): significantly reduced | COM adhesion to scrape-wounded MDCK I cells (MDCK I cells [3]; after 15 min or 24 h incubation time, FIGS. 2A and 2B): significantly inhibited | crystal binding by PGG-pretreated MDCK I cells (MDCK I cells [3]; cells pretreated 15 minutes or 24 hours, FIG. 5): bound less crystals | binding of PGG-precoated COM crystals to cells (MDCK I cells [3]; crystals precoated with PGG 15 min, concentration-dependent, FIG. 4B): decrease their subsequent binding to cells | total cell hyaluronan expression by wounded monolayers (Western blot), effect versus 15 min (hyaluronan; 24 hours exposure, 1-10 μM, FIG. 6B): slightly more pronounced | hyaluronan expression on the surface of wounded MDCK 1 cells (confocal microscopy) (hyaluronan; PGG treatment 15 minutes or 24 hours, concentration dependent, FIG. 6A): attenuated | total cell hyaluronan expression by wounded monolayers (Western blot) (hyaluronan; within 15 minutes of PGG addition, FIG. 6B): decreased | body weight of mice, PGG versus control groups ([4]; FIG. 7): no significant difference | hematological values ([4]; FIG. 9): did not affect | GOT and GPT levels ([4]; FIG. 10): did not affect | shapes and weights of organs (spleen, liver, kidney, lung) ([4]; FIGS. 8 and 11): did not affect | survival rate compared with normal group ([5]; 20 mg/kg PGG): mirrored that of those in the normal group | Serum BUN (mean ± SD) ([5]; PGG 4 mg/kg + EG): 24.6 ± 3.9 mg/dL | Serum Calcium (mean ± SD) ([5]; PGG 4 mg/kg + EG): 10.9 ± 1.1 mg/dL | Serum Creatinine (mean ± SD) ([5]; PGG 4 mg/kg + EG): 0.6 ± 0.5 mg/dL | Serum Phosphate (mean ± SD) ([5]; PGG 4 mg/kg + EG): 10.7 ± 1.4 mg/dL | Serum Uric acid (mean ± SD) ([5]; PGG 4 mg/kg + EG): 2.9 ± 3.2 mg/dL | Urine Calcium ([5]; PGG 4 mg/kg + EG): 2.95 ± 0.31 | Urine Mean Vol ± SD ([5]; PGG 4 mg/kg + EG): 33.0 ± 3.74 mL | Urine Mean pH ± SD ([5]; PGG 4 mg/kg + EG): 6.7 ± 1.2 | Survival (%) ([5]; PGG 4 mg/kg): 83% | Serum BUN (mean ± SD) ([5]; PGG 20 mg/kg + EG): 23.3 ± 3.7 mg/dL | Serum Calcium (mean ± SD) ([5]; PGG 20 mg/kg + EG): 10.5 ± 0.3 mg/dL | Serum Creatinine (mean ± SD) ([5]; PGG 20 mg/kg + EG): 0.6 ± 0.1 mg/dL | Serum Phosphate (mean ± SD) ([5]; PGG 20 mg/kg + EG): 9.4 ± 0.8 mg/dL | Serum Uric acid (mean ± SD) ([5]; PGG 20 mg/kg + EG): 1.6 ± 1.0 mg/dL | Urine Calcium ([5]; PGG 20 mg/kg + EG): 3.52 ± 0.31 | Urine Mean Vol ± SD ([5]; PGG 20 mg/kg + EG): 34.7 ± 3.59 mL | Urine Mean pH ± SD ([5]; PGG 20 mg/kg + EG): 7.1 ± 0.8 | Survival (%) ([5]; PGG 20 mg/kg): 100% | survival time of the rats ([5]; upon administration of PGG, FIG. 12 and Table 4): increased | number of stones (calcium oxalate in urine) versus stone group ([5]; urine at 21 days, FIG. 14): considerably less
